Measurements as given in patent US20140045937A1, “METHODS OF TREATING POLYCYSTIC OVARIAN SYNDROME USING CHLOROGENIC ACID” (Oculus Innovative Sciences, Inc., priority 2012, published 2014).

Legend:
[1] = test system: PCOS and/or anovulation in female patients; assay: GLUCOREIN beverage (chlorogenic acid and L-cysteine) in anovulatory female patients with PCOS symptoms attempting to become pregnant; assay type: in vivo, human; details: CLOMID added to GLUCOREIN regimen after three months; three patients with body mass index over 35; read after four months of treatment
Experimental: Ten female patients, between the ages of 25 and 37, each anovulatory, were evaluated. […] Chronic anovulation is a common cause of infertility. These patients were also attempting to become pregnant and presented with multiple symptoms of PCOS. Their diets were supplemented with GLUCOREIN medical food beverage (a powdered solid including the components set forth in Table 1 mixed in 8 ounces of water). Per instructions for use, the patients each consumed one eight-ounce serving of the GLUCOREIN beverage each day, typically in the morning hours.
After four months of treatment, with all ten patients continuing with the protocol, the results were as follows: […]

PCOS = details: variety of clinical trials, literature; cited from earlier work

SMILES	patients who tested positive for ovulation [1]	treatment or prevention of PCOS (PCOS)
CCN(CC)CCOc1ccc(C(=C(Cl)c2ccccc2)c2ccccc2)cc1 [CLOMID, clomiphene]	none	
CC(=O)N[C@@H](CS)C(=O)O [NAC, N-acetyl-L-cysteine]		shown to treat or prevent PCOS
